According to ChEMBL document CHEMBL1201862, “PubChem BioAssay data set” (2004):
The source made the active and inactive calls.

Tests used:
[1] = biological target: T1, High affinity choline transporter 1 (Homo sapiens, UniProt Q9GZV3); assay: CHT inhibitors, dose response, cell-based, 5-point CRC, membrane potential dye (AID 504840); assay type: functional
T1 sequence (Q9GZV3 whole entry): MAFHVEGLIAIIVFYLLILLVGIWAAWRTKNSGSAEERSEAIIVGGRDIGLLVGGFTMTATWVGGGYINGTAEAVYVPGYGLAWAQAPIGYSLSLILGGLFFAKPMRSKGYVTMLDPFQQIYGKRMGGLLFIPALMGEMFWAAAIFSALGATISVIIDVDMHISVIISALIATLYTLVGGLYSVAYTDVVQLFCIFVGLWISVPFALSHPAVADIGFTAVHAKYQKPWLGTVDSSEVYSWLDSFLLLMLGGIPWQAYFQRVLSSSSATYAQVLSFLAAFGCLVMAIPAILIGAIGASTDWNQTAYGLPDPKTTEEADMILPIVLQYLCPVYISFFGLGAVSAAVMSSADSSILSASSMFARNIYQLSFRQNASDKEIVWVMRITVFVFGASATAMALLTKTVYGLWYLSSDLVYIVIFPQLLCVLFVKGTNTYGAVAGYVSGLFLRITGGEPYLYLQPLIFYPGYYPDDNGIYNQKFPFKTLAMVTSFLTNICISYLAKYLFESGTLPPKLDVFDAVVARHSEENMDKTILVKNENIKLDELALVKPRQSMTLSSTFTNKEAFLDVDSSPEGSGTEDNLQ

[2] = biological target: T2, Polyadenylate-binding protein 1 (Homo sapiens, UniProt P11940); assay: PABP1 MLLE–PAM2 interaction inhibitors, dose response, miRNA deadenylation inhibitor project, biochemical, fluorescence polarization, Cy5-PAM2 peptide, secondary (AID 602260); assay type: functional; details: read-out: IC50_Mean
T2 sequence (P11940 whole entry): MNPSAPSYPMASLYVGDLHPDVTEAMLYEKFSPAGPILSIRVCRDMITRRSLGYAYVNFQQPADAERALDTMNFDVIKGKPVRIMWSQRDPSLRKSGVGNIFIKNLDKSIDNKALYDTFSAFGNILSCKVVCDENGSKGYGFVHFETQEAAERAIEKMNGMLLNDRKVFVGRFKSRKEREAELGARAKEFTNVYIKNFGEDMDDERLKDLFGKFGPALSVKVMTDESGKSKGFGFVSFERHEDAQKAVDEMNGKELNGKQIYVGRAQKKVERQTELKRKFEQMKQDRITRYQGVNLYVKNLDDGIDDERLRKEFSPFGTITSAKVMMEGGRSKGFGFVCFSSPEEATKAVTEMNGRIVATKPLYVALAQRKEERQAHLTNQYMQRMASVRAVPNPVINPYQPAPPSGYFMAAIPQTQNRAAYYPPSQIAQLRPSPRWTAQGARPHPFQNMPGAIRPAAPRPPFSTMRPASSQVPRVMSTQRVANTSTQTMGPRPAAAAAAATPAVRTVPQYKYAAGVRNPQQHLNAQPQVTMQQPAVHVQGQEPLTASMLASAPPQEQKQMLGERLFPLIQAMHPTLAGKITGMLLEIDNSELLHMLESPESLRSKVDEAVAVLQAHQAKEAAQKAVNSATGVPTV

[3] = biological target: T2, Polyadenylate-binding protein 1; assay: PABP1 MLLE–PAM2 binding inhibitor potency, dose response, biochemical, fluorescence polarization, FITC-PAM2 peptide (AID 602259); assay type: functional; details: read-out: IC50_Mean
[4] = HEp-2 cell cytotoxicity, dose response, cytotoxicity control for RSV inhibitor project, HTS (AID 2410); assay type: functional; details: human respiratory syncytial virus
[5] = system: Streptococcus sp. 'group A'; assay: growth inhibition of control SK(-) GAS strain, dose response, counter-screen for streptokinase expression inhibitor project, luminescence, kanamycin, BacTiterGlo, confirmation (AID 1900); assay type: functional, organism-based
[6] = microbe, parasite or virus in culture; assay type: functional; details: Mycobacterium tuberculosis
[7] = system: Streptococcus; assay: Group A Streptococcus viability loss, dose response, counter-screen for streptokinase expression inhibitor project, luminescence, BacTiterGlo (AID 1915); assay type: functional, organism-based;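 also: potency for reduction of bacterial viability or growth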
[8] = system: H9c2; assay: cells; assay type: functional, cell-based; details: Rattus norvegicus, H9c2, Myocardium;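 also: confirmatory concentration-response retest of ultra-high-throughput screening hits for modulation of myocardial damage; cell death induced by hydrogen peroxide oxidative stress; compound pretreatment for 60 min then peroxide exposure for 2 h; potency is for protecting the cells against peroxide damage rather than for killing them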
[9] = LGR2 antagonists, dose response, cell-based, HEK293, CRE-luciferase reporter, cherry pick, set 2 (AID 743343); assay type: functional;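 also: transfected cells were stimulated with diluted bursicon conditioned medium after compound addition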
[10] = MC4R antagonists, dose response, counter-screen for LGR2 antagonist project, cell-based, plate reader, cherry pick (AID 743444); assay type: functional;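 also: transfected HEK 293 cells stimulated with alpha-MSH peptide; potency of inhibitors of the alpha-MSH evoked signal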
[11] = biological target: FAD-linked sulfhydryl oxidase ALR (Homo sapiens, UniProt P55789); assay: inhibitors of human ALR sulfhydryl oxidase, dose response, biochemical, H2O2 detection, luminescence, cherry-pick (AID 493248)
FAD-linked sulfhydryl oxidase ALR, sequence (P55789 whole entry): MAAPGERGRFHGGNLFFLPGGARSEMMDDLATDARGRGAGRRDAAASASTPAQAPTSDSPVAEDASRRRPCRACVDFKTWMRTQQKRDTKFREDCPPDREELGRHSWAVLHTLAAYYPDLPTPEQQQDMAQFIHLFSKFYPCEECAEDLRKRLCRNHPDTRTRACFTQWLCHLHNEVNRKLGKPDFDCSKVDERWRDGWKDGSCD

[12] = biological target: Genome polyprotein (dengue virus type 2, UniProt P29990); assay: Dengue-2 NS5 methyltransferase inhibitors, primary screen, biochemical, confirmation dose response (AID 588689); assay type: functional
Genome polyprotein, sequence (P29990 2492-3391 limits assumed): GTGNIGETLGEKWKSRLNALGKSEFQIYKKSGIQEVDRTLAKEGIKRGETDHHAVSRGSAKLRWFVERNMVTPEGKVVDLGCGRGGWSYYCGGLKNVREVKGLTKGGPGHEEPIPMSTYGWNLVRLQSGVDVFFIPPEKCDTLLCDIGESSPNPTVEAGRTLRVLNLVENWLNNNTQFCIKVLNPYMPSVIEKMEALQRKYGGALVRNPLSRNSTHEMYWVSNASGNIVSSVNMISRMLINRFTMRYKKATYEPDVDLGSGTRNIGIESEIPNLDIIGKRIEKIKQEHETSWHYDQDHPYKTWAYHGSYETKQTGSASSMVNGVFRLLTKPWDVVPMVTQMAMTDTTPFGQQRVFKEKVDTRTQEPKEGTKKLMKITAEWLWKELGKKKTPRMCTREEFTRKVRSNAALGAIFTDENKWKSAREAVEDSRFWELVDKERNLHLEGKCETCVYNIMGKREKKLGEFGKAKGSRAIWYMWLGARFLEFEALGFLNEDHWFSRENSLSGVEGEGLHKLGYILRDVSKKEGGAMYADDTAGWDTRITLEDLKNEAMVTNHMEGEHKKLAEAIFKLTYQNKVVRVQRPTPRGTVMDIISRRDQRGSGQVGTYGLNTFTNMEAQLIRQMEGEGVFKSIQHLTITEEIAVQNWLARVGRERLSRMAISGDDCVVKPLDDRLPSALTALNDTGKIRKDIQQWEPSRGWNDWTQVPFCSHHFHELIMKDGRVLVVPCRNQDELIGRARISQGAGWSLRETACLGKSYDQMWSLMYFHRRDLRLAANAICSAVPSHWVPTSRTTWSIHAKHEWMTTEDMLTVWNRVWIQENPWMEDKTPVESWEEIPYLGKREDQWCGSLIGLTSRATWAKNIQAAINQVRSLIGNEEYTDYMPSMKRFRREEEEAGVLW

[13] = growth suppression of PTEN-null colon cells, dose response, cell-based, HCT116 PTEN knockout (AID 1047); assay type: functional;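 also: HCT116 colon tumor cells with PTEN knocked out; cells exposed to compound for 60 hours before readout; potency for loss of cell viability measured by luminescence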
[14] = growth suppression of beta-catenin-knockout colon cells, dose response, cell-based, HCT116, human colon tumor (AID 1045); assay type: functional;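 also: HCT116 colon tumor cells with beta catenin knocked out; cells exposed to compound for 60 hours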
[15] = biological target: Glucose-6-phosphate 1-dehydrogenase (Homo sapiens, UniProt P11413); assay: human G6PD enzyme inhibitors, dose response, selectivity assay for P. falciparum G6PD inhibitor project, biochemical, fluorescence (AID 504792); assay type: functional
Glucose-6-phosphate 1-dehydrogenase, sequence (P11413 whole entry): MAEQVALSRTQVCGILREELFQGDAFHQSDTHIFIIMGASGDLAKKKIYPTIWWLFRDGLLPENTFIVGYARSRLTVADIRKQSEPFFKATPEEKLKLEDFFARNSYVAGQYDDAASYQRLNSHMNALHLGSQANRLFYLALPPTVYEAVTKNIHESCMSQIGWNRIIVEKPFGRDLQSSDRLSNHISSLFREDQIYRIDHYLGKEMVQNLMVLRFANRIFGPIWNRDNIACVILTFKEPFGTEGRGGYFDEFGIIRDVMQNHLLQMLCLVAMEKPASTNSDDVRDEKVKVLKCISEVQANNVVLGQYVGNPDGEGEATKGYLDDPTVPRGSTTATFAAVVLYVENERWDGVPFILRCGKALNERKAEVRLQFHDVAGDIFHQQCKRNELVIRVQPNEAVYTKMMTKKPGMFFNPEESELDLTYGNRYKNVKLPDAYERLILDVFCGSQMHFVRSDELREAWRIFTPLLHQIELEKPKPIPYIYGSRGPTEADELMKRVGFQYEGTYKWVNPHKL

[16] = system: Vero; assay: cells; assay type: functional; details: Chlorocebus sabaeus
[17] = biological target: T3, Rac GTPase-activating protein 1 (Homo sapiens, UniProt Q9H0H5); assay: MgcRacGAP GTPase-activating activity inhibitors, confirmation, biochemical, ADP Hunter fluorescence, primary and confirmatory (AID 624330); assay type: functional
T3 sequence (Q9H0H5 whole entry): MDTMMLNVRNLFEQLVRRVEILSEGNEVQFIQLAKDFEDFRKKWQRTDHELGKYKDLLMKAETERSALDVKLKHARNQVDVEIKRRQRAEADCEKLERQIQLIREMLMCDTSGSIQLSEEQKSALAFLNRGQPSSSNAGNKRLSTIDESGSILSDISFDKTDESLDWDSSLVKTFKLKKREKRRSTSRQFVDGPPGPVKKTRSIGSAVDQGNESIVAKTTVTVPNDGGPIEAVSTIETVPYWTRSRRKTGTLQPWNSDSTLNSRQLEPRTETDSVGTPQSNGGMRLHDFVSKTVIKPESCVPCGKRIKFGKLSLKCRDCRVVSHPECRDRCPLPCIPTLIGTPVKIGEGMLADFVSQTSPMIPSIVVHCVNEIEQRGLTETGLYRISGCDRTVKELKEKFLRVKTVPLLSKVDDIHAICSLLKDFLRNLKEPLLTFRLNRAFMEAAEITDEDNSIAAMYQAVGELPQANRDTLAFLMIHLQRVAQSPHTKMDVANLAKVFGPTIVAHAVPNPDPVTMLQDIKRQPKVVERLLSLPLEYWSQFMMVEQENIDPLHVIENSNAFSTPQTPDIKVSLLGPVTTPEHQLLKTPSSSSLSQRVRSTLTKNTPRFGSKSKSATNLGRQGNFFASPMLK

[18] = biological target: T4, Caspase-6 (Homo sapiens, UniProt P55212); assay: human caspase-6 inhibitors, dose response, biochemical, VEID-R110 fluorescence, cherry-pick (AID 720632)
T4 sequence (P55212 whole entry): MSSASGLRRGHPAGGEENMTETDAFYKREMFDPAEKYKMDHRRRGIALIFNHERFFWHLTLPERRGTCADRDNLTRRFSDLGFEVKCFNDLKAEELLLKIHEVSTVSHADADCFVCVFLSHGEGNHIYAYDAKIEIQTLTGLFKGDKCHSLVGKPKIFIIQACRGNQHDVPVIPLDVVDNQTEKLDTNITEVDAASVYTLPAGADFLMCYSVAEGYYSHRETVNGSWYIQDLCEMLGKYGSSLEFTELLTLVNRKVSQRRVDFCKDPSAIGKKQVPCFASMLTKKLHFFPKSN

Cc1ccccc1/C=C/C(=O)NCC(=O)N1CCC(N(C)C2CCCCC2C)CC1 (centres undefined)
IC50 [1]: 14.5 µM (active)

O=C(O)c1cccc(S(=O)(=O)Nc2ccc3c(c2)OCO3)c1
IC50 [2]: > 66 µM (inactive) | IC50 [3]: > 66 µM (inactive)

Cc1cc(C)c2ccc(NN)nc2c1O
CC50 [4]: 36 µM (active) | EC50 [5]: 3.27 µM (active) | CC50 [6]: > 40 µM (active) | EC50 [7]: 6.5 µM (active) | IC50 [8]: 5.06 µM (active)

CNC(=O)Oc1cccc(-c2cn3cc(Cl)ccc3n2)c1
AC50 [9]: 15.8 µM (active) | AC50 [10]: 18.6 µM (active)

Cc1cc(Nc2[nH]nc(N)c2C#N)ccc1F
AC50 [11]: 2.22 µM (active)

CC1CCCCC1NC(=O)c1ccc(S(=O)(=O)NCC2CCCO2)cc1 (centres undefined)
IC50 [1]: 12.3 µM (active)

COC(=O)c1c(C)c2c(C)cc3ccccn3c-2c1C(=O)OC
IC50 [12]: > 100 µM (active)

CSc1ccc(C2C(C#N)=C(N)Oc3cc4c(cc32)OCO4)cc1 (centres undefined)
EC50 [13]: 6.59 µM (active) | EC50 [14]: 6.05 µM (active)

[O-]/[N+](=C/c1cccnc1)c1ccc(Br)cc1
IC50 [15]: 28.2 µM (inactive)

Fc1cc(F)c(F)c(SCCc2ccncc2)c1F
EC50 [13]: 29.7 µM (active) | EC50 [14]: 30.7 µM (active)

Nc1ccc(-c2ccc(N)c(C(=O)O)c2)cc1C(=O)O
AC50 [11]: 2.38 µM (active)

CC(=O)Nc1ccc(C(=O)CSc2ncn(-c3ccccc3)n2)cc1
IC50 [2]: > 66 µM (inactive) | IC50 [3]: > 66 µM (inactive)

Cc1ccc(S(=O)(=O)SC/C=C/CSS(=O)(=O)c2ccc(C)cc2)cc1
IC50 [15]: 59.5 µM (inactive)

CN(C)CCCN(C(=O)C1=COCCO1)c1nc2ccc(Br)cc2s1
CC50 [16]: > 25 µM (active)

Sc1ncc2cnccn12
IC50 [2]: > 66 µM (inactive) | IC50 [3]: > 66 µM (inactive) | IC50 [17]: 52.3 µM (active)

COc1cc(/C=N/Nc2ccc(Cl)nn2)cc(OC)c1O
AC50 [11]: 0.005 µM (active)

CCCCNc1nc(NCc2ccccc2)nc2ccccc12
AC50 [18]: 15.6 µM (active)

COc1c(OC(C)=O)ccc(/C=N\NC(=O)c2ccc(Br)cc2)c1[N+](=O)[O-]
IC50 [12]: 96.5 µM (active)
